Laboratory results: patent US6509464B1, “FKBP inhibitors” (Pfizer Inc, priority 1999, dated 2003)

Assays:
Assay type in all cases: biochemical
[1] = molecular target: T1, human recombinant FKBP-12 (Homo sapiens, UniProt P62942); assay: coupled PPIase (rotamase) assay, IC50 determination vs. FKBP-12; conditions: tested vs. FKBP-12 and/or FKBP-52; succinyl-AFPF-pNA substrate, chymotrypsin-coupled, 10° C., pH 8.0
Text: (§1) The affinity of the compounds of the formula (I) for FKBP-12 can be determined in vitro in a coupled calorimetric PPlase assay using similar procedures to published methods (e.g. see Kofron, J. L., et al., Biochemistry, 1991, 30, 6127-6134, Zarnt, T., et al., Biochem. J. 1995, 305, 159-164, Holt, D. A., et al., J. Am. Chem. Soc., 1993, 115, 9925-9938). In these methods, the cis-trans isomerisation of a hydrophobic amino acid-proline bond in a tetrapeptide substrate (e.g. the phenylalanine-proline bond in N-succinyl-ala-phe-pro-phe-p-nitroanilide [succinyl-AFPF-pNA]) can be determined by monitoring cleavage of pNA from the transPro-containing peptide by an excess of chymotrypsin.
The IC50 (the concentration of the compound of the formula (I) producing 50% inhibition) values were determined using the following assay methodology. Assay buffer (2.175 ml) (50 mM 4-(2-hydroxyethyl)-1-piperazineethanesulphonic acid (HEPES), 100 mM NaCl, 1 mM dithiothreitol (DTT), pH 8.0) is equilibrated to 10° C. in a cuvette. 12.5 μl of a solution of the present compound in DMSO, 250 μl of a 60 mg/ml solution of α-chymotrypsin in 1 mM aqueous hydrochloric acid and then 50 μl of a solution of human recombinant FKBP-12 (4.5 μM) in assay buffer are added and mixed. The reaction is initiated by addition of 12.5 μl of a solution of 20 mM succinyl-AFPF-pNA in DMSO. The absorbance at 390 nm is monitored for one minute collecting data every 0.25 second. Data are fitted with a first order rate equation with offset and the rate constant obtained corrected for the rate of uncatalysed isomerisation of the substrate. The rate constant determined at different inhibitor concentrations (10 nM to 100 μM) is expressed as % inhibition of the control rate constant. The IC50 is estimated using a nonlinear least squares curve fitting routine of the sigmoidal dose response data.

[2] = molecular target: T1, human recombinant FKBP-12; assay: coupled PPIase (rotamase) assay, Ki,app determination vs. FKBP-12; conditions: tested vs. FKBP-12 and/or FKBP-52; FKBP-12 method; succinyl-AFPF-pNA, 10° C., pH 8.0
Text: as §1
(§2) Assay buffer (2.175 ml) (50 mM HEPES, 100 mM NaCl, 1 mM DTT, pH 8.0) is equilibrated to 10° C. in a cuvette. 12.5 μl of a solution of the present compound in DMSO, 250 μl of a 60 mg/ml solution of α-chymotrypsin in 1 mM aqueous hydrochloric acid and then 50 μL of a solution of human recombinant FKBP-12 (1.5 μM) in assay buffer are added and mixed. The reaction is initiated by adding 12.5 μl of a solution of anhydrous succinyl-AFPF-pNA (100 μM final concentration) in a 400 mM solution of LiCl in trifluoroethanol. The absorbance at 390 nm is monitored for 3 minutes collecting data every 0.5 second. Data are fitted with a first order rate equation with offset and the initial velocity (v) is calculated from the concentration of cis (re leu-pro bond)-succinyl-AFPF-pNA at to and the first order rate constant at different inhibitor concentrations (I). Data in the form vinh/vcontrol v. [I] are fitted with an equation for reversible tight binding inhibition to generate values for Kiapp (see Morrison, J. F., et al, Comments Mol. Cell Biophys., 1985, 2, 347-368). This analysis is used when the Ki,app approaches the concentration of FKBP-12 in the assay (30 nM).

[3] = molecular target: T2, human recombinant FKBP-52 (Homo sapiens, UniProt Q02790); assay: coupled PPIase (rotamase) assay, Ki,app determination vs. FKBP-52; conditions: tested vs. FKBP-12 and/or FKBP-52; FKBP-52 method; succinyl-AFPF-pNA, 10° C., pH 8.0
T2 sequence (Q02790 1-459): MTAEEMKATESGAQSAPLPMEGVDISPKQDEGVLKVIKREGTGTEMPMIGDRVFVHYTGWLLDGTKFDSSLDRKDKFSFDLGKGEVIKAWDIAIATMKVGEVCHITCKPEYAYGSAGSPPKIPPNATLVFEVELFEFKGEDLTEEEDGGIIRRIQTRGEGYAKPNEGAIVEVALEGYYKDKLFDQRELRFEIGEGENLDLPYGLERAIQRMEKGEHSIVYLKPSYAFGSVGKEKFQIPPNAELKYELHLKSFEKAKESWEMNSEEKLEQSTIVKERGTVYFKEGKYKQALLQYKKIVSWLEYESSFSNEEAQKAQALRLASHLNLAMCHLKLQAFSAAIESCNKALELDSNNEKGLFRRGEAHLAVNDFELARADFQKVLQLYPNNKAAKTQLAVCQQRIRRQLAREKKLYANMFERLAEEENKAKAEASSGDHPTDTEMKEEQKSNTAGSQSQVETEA
Experimental: as §2
The same methodology is used to measure Ki,app for FKBP-52, with the following modifications: 40 μl human recombinant FKBP-52 (5.2 μM) is substituted for FKBP-12 and 2.185 ml assay buffer are used in the assay.

T1 sequence (P62942 whole entry): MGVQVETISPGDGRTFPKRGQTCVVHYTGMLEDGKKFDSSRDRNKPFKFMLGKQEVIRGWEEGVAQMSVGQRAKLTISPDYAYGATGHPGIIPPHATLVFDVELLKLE

IC50 [1]	Ki [2]	Ki [3]	SMILES
< 1000 nM	< 1000 nM	< 1000 nM	CC(C)NC(=O)N1C[C@@H](C)N(CCNC(=O)[C@@H]2CCCCN2c2nc3ccccc3o2)[C@@H](C)C1 [Example 11, (cis)-4-[2-([(2S)-1-(1,3-Benzoxazol-2-yl)-2-piperidinyl]carbonylamino)ethyl]-N^1-isopropyl-3,5-dimethyl-1-piperazinecarboxamide]
< 1000 nM	< 1000 nM	< 1000 nM	CC1COCC(C)N1CCNC(=O)[C@@H]1CCCCN1c1nc2ccccc2o1 (stereo partly drawn) [Example 12, (2S)-1-(1,3-Benzoxazol-2-yl)-N^2-[2-(3,5-dimethylmorpholino)ethyl]-2-piperidinecarboxamide]
< 1000 nM	< 1000 nM	< 1000 nM	Cc1cccc2[nH]c(N3CCCC[C@H]3C(=O)NCCN3[C@H](C)CCC[C@@H]3C)nc12 [Example 27]
< 1000 nM	< 1000 nM	< 1000 nM	COc1ccc2[nH]c(N3CCCC[C@H]3C(=O)NCCN3[C@H](C)CCC[C@@H]3C)nc2c1 [Example 18]
< 1000 nM	< 1000 nM	< 1000 nM	C[C@@H]1CCC[C@H](C)N1CCNC(=O)[C@@H]1CCCCN1c1nc2ccccc2o1 [Example 3, (2S)-1-(1,3-Benzoxazol-2-yl)-N^2-2-[(cis)-2,6-dimethyl-1-piperidinyl]ethyl-2-piperidinecarboxamide]
< 1000 nM	< 1000 nM	< 1000 nM	C[C@@H]1CCC[C@H](C)N1CCNC(=O)[C@@H]1CCCCN1c1nc2ccc(F)cc2[nH]1 [Example 19]
< 1000 nM	< 1000 nM	< 1000 nM	Cc1cc2nc(N3CCCC[C@H]3C(=O)NCCN3[C@H](C)CCC[C@@H]3C)oc2cc1C [Example 31, (2S)-N^2-2-[(cis)-2,6-Dimethyl-1-piperidinyl]ethyl-1-[5,6-dimethyl-1,3-benzoxazol-2-yl]-2-piperidinecarboxamide]
< 1000 nM	< 1000 nM	< 1000 nM	C[C@@H]1CCC[C@H](C)N1CCNC(=O)[C@@H]1CCCCN1c1nc2ccccc2[nH]1 [Example 17]
